The NIST ThermoML archive (doi:10.1016/j.fluid.2014.09.024)

Columns and labels:
[1] = for mass density: 101 kPa, Liquid, Vibrating tube method; for Normal melting temperature: Crystal, visual observation
[2] = refractive index (Na D-line) (dimensionless); settings: 323.15 K; 101 kPa; Liquid; Standard Abbe refractometry
[3] = xn = mol fraction of the nth substance listed; settings: 323.15 K, 101 kPa, Liquid, Vibrating tube method
[4] = refractive index (Na D-line) (dimensionless); xn = mol fraction of the nth substance listed; settings: 323.15 K, 101 kPa, Liquid, Standard Abbe refractometry

COc1ccccc1 [anisole]
[1]
Settings | mass density [kg/m3]
298.15 K | 989.42
323.15 K | 965.35

Settings | Normal melting temperature [°C] | refractive index
[1] | -37.9 | –
[2] | – | 1.5012

COc1ccccc1 [anisole] + COC(=O)OC
Settings | mass density, [3] [kg/m3] | refractive index, [4]
x2 = 0 | 965.35 | 1.5012
x2 = 0.05 | 967.83 | 1.4963
x2 = 0.1001 | 970.34 | 1.4908
x2 = 0.2001 | 975.5 | 1.4795
x2 = 0.3 | 980.89 | 1.4659
x2 = 0.4 | 986.63 | 1.4516
x2 = 0.5 | 992.69 | 1.437
x2 = 0.5999 | 999.08 | 1.4226
x2 = 0.7 | 1005.87 | 1.4087
x2 = 0.8 | 1013.1 | 1.393
x2 = 0.9 | 1020.95 | 1.3754
x2 = 0.95 | 1025.2 | 1.3655

COc1ccccc1 [anisole] + Oc1ccccc1
Settings | mass density, [3] [kg/m3] | refractive index, [4]
x1 = 0.05 | 1044.95 | 1.535
x1 = 0.1001 | 1040.35 | 1.5333
x1 = 0.2 | 1031.27 | 1.5296
x1 = 0.3 | 1022.44 | 1.5259
x1 = 0.4 | 1013.68 | 1.522
x1 = 0.5 | 1005.11 | 1.5183
x1 = 0.6103 | 995.89 | 1.5144
x1 = 0.7 | 988.65 | 1.5114
x1 = 0.8 | 980.8 | 1.508
x1 = 0.9001 | 973.1 | 1.5047
x1 = 0.9498 | 969.31 | 1.503
x1 = 1 | 965.35 | 1.5012

COC(=O)OC [dimethyl carbonate]
[1]
Settings | mass density [kg/m3]
298.15 K | 1063.26
323.15 K | 1029.81

Settings | Normal melting temperature [°C] | refractive index
[1] | 5.1 | –
[2] | – | 1.3546

COC(=O)OC [dimethyl carbonate] + COc1ccccc1
x1 = 1
Settings | mass density [kg/m3] | refractive index
[3] | 1029.81 | –
[4] | – | 1.3546

COC(=O)OC [dimethyl carbonate] + Oc1ccccc1
x1 = 1
Settings | mass density [kg/m3] | refractive index
[3] | 1029.81 | –
[4] | – | 1.3546

Oc1ccccc1 [phenol]
[1]
Settings | mass density [kg/m3]
313.15 K | 1058.51
323.15 K | 1049.8

Settings | Normal melting temperature [°C] | refractive index
[1] | 41.0 | –
[2] | – | 1.5375

Oc1ccccc1 [phenol] + COC(=O)OC
Settings | mass density, [3] [kg/m3] | refractive index, [4]
x2 = 0 | 1049.79 | 1.5375
x2 = 0.0469 | 1049.78 | 1.53
x2 = 0.1001 | 1049.78 | 1.5222
x2 = 0.2001 | 1049.38 | 1.5068
x2 = 0.3 | 1048.47 | 1.4912
x2 = 0.3999 | 1047.12 | 1.479
x2 = 0.5 | 1045.31 | 1.4698
x2 = 0.6 | 1043 | 1.4592
x2 = 0.7001 | 1040.26 | 1.4428
x2 = 0.8 | 1037.11 | 1.4169
x2 = 0.9 | 1033.66 | 1.384
x2 = 0.9499 | 1031.81 | 1.3675

Oc1ccccc1 [phenol] + COc1ccccc1
x2 = 0
Settings | mass density [kg/m3] | refractive index
[3] | 1049.8 | –
[4] | – | 1.5375
